pIC50: −log10 of the molar value. Where two headings read alike, the source gives them in different places.

The results in this text go back to US20200281873A1, “Adamantane or Bicyclic Monoterpenoid Derivatives for Use in the Treatment of Leishmaniasis” (Commissariat a l'Energie Atomique et aux Energies …, priority 2017, published 2020).

Series [1] can be described thus: Incubation of VP343 with human hepatic microsomes (LC-MS). The conditions noted are these: t = 45 min. Format: in vitro ADME. As to the method:
The metabolites' identification of VP343 was performed after incubation of the compound with hepatic microsomal preparations from mouse, dog and human origin. The assay was performed by mixing VP343 at 5; 4; 2 or 1 μM with CD1 mouse hepatic microsomes (reference MIC255030 Biopredic) at 0.5 mg/mL of protein, or Beagle dog hepatic microsomes (reference MIC257013 Biopredic) at 1 mg/mL of protein, or human hepatic microsomes (reference MIC159882 Biopredic) at 1 mg/mL of protein, together with 1 mM NADPH (reference N1630 Sigma Aldrich), a phase I reaction's cofactor, in a 0.1 M phosphate buffer pH 7.4. Samples were then incubated in a Thermomixer® (Eppendorf) at 37° C. and 300 rotations per minute. After 45 minutes of incubation, the reaction was stopped with acetonitrile (0.5 volume of the experimental incubation volume). The samples' supernatants were then separated from the microsomes by centrifugation at 20,000 g during 10 minutes (Sorvall ST 16, Thermo Fisher Scientific) before analysis by liquid chromatography coupled to mass spectrometry (LC-MS).
The analysis was performed in two steps: first, on a positive electrospray ionisation source using a Waters Acquity I class UPLC (Ultra Performance Liquid Chromatography) system coupled to a Waters triple quadrupole mass spectrometer (Xevo TQMS) and then on an orbitrap source using a Thermo Fisher UHPLC (Ultra High Performance Liquid Chromatography) system (Ultimate 3000) coupled to a Thermo Fisher orbitrap mass spectrometer (Q Exactive) to confirm the structures of the identified metabolites. VP343 and his metabolites were separated by the UPLC system with a six minutes gradient of acetonitrile containing 0.1% of formic acid in a BEH C18 column (1.7 μm, 2.1×50 mm, Waters) with a mobile phase flow rate of 0.6 mL/min.
The metabolization of VP343 was studied by incubating the compound with mouse, dog, and human hepatic microsomes. The concentration of VP343 in the microsomal preparations was measured at t=0 and at t=45 min by liquid chromatography-tandem mass spectrometry (LC-MS). […]

For series [2], the system named is L. infantum intramacrophagic amastigotes. In words: L. donovani infantum/RAW 264.7 macrophage model (intramacrophagic amastigotes, SYBR Green I). Format: cell-based, Leishmania donovani infantum. The conditions noted are these: Leishmania infantum, Macrophage. As to the method:
Protocol for Evaluation on the L. donovani infantum/RAW 264.7 Macrophage Model (Intramacrophagic Amastigotes)
Mouse macrophage cells RAW 264.7 (ATCC) were seeded into a 96-well microplate and maintained in DMEM medium (Applied Biosystems, France) supplemented with 10% heat-inactivated fetal bovine serum in a 5% CO2 incubator at 37° C. for 24 h. Then, the medium was replaced with 100 μL fresh medium containing a suspension of 10^5 L. infantum amastigotes and the incubation time was 16 h. Then, extracellular parasites were eliminated from the medium and 100 μL fresh medium containing compound in various concentrations were added for a 48 h-incubation. Parasite growth was determined by using SYBR® Green I (Life technology, Fisher Scientific, France), a dye with marked fluorescence enhancement upon contact with DNA. The cell lysis suspension was diluted 1:1 in lysis buffer (10 mM NaCl, 1 mM Tris HCl pH8, 2.5 mM EDTA pH 8, 0.05% SDS, 0.01 mg/mL proteinase K and 10×SYBR Green I). Incorporation of SYBR Green I in DNA amplification was measured using the Master epRealplex cycler® (Eppendorf, France) according to the following program to increase the SYBR green incorporation: 90° C. for 1 min, decrease in temperature from 90° C. to 10° C. for 5 min with reading the fluorescence at 10° C. for 1 min and a new reading at 10° C. for 2 min. The EC50 as the concentration inhibiting the parasite growth by 50% was calculated by nonlinear regression using icestimator website 1.2 version: http://www.antimalarial-icestimator.net/MethodIntro.htm.

`COc1ccc(Br)cc1CN(C)C12CC3CC(CC(C3)C1)C2` [VP343]: the VP343 residual concentration in series [1] (initial concentration 1 μM) was 0.41 µM; in series [1] (initial concentration 2 μM), 1.08 µM; in series [1] (initial concentration 4 μM), 1.62 µM. For the same compound, the pIC50 in series [2] (Table II, 3 different experiments, SYBR Green I method, read-out: IC50 intramacrophagic) was 7.40; in series [2] (cf. Table II, read-out: IC50 (intramacrophage amastigotes)), 7.40.

In general, pIC50 refers to the negative decadic logarithm of the IC50, by convention in mol/L.
